What was measured:
[1] = molecular target: T1, RBM39-3xFLAG complex (Homo sapiens, UniProt Q14498+Q66K64); assay: Immunoprecipitation of RBM39 complex +/− indisulam, LC-MS/MS (Table 1); conditions: H1155 RBM39-3xFLAG cells; 10 μM indisulam 2 hours
T1 construct: endogenous in cells; host or cells: H1155 RBM39-3xFLAG knock-in cells
Procedure: (§1) Anti-Flag M2 antibody (Sigma-Aldrich) was coupled to Dynabeads M-270 epoxy beads (Life Technologies) at the ratio of 10 μg of antibody/mg beads. […] Frozen cells were then pulverized in the a cryomill (Retsch) with one 25 mm steel ball and five cycles of three min at 25 Hz with intermittent cooling in liquid nitrogen. […] The lysates were centrifuged at 8000 g for 5 min at 4° C. 12 mg of conjugated Anti-Flag magnetic beads were mixed with clarified lysates for 5 min at 4° C. on a rotating platform, followed by three washes with IP buffer. Bound proteins were eluted with 1 mg/ml 3xFLAG peptide, followed by SDS-PAGE on a 10% Bis Tris gel. After brief electrophoresis, bands containing all the proteins were cut with clean blades. For western blotting of co-immunoprecipitated proteins, anti-DDA1 (ProteinTech, 14995-1-AP, 1:1000), anti-DDB1 (Abcam, ab109027, 1;10000), anti-CUL4A (Cell Signaling, 2699, 1:1000), anti-CUL4B (ProteinTech, 12916-1-AP, 1:1000) were used.
Excised gel bands were cut into approximately 1 mm^3 pieces. Gel pieces were then subjected to a modified in-gel trypsin digestion procedure (46). Gel pieces were washed and dehydrated with acetonitrile for 10 min. followed by removal of acetonitrile. Pieces were then completely dried in a speed-vac. […] Peptides were detected, isolated, and fragmented to produce a tandem mass spectrum of specific fragment ions for each peptide. […]

[2] = molecular target: T2, RBM39 G268V-3xFLAG with CUL4 complex (Homo sapiens, UniProt Q14498+Q66K64, G268V); assay: Co-immunoprecipitation of RBM39 G268V-3xFLAG from treated cells; assay type: cell-based; conditions: in the presence of indisulam
T2 construct: lysate derived from parental cells, RBM39-3xFLAG cells, or RBM39 G268V-3xFLAG cells; endogenous in cells; host or cells: HCT-116 RBM39 G268V-3xFLAG cells (treated cells in A91; lysates in A95)
Procedure: as §1

[3] = molecular target: T3, RBM39-3xFLAG (Homo sapiens, UniProt Q14498+Q66K64); assay: In vivo polyubiquitination of RBM39; assay type: cell-based; conditions: DCAF15 co-expressed; 293T cells
T3 construct: expressed in transfected cells; host or cells: 293T
Procedure: cDNAs encoding RBM39-3xFLAG, RBM39 G268V-3xFLAG, and DCAF15-V5 were cloned into the pCDNA3.1+vector. pCMV 8XHis Ub was a gift from William Kaelin (Dana Farber Cancer Institute). 0.4 million 293T cells were seeded per well on 6-well plates and allowed to attach overnight. 250 ng of pCMV 8XHis Ub, 500 ng of pCDNA3-DCAF15-V5, 10 ng of either pCDNA3-RBM39-3xFLAG or pCDNA3-RBM39 G268V-3xFLAG were transfected. […] Cells were lifted from the plates by pipetting, pelleted by centrifugation, and washed once with PBS. Purification of His-Ub tagged proteins was performed as described (5).

[4] = molecular target: T4, RBM39-3xFLAG with DDA1, DDB1, CUL4A (Homo sapiens, UniProt Q14498+Q66K64); assay: In vitro formation of RBM39-CUL4-DCAF15 complex in lysates; assay type: binding; conditions: indisulam dose-dependent manner
T4 construct: endogenous in cells; host or cells: HCT-116 RBM39-3xFLAG knock-in cells (treated cells in A90)
Procedure: First, we reconstituted formation of the RBM39-CUL4-DCAF15 complex in vitro (FIG. 4, panel A).
as §1

[5] = molecular target: T5, DCAF15 and RBM39Δ150 (Homo sapiens, UniProt Q14498+Q66K64); assay: Mass spec quantification of indisulam in RBM39 DCAF15 complex; assay type: binding; conditions: DCAF15 and wild type RBM39Δ150; 10 μM indisulam
T5 construct: Full-length cDNAs encoding CUL4A, CUL4B, DCAF15, and DDB1 were cloned into pLVX IRES Puro; made in house; host or cells: RBM39Δ150: Sf9 (baculovirus); DCAF15-3xFLAG: anti-FLAG beads from HCT-116 or 293T cells stably expressing it
Source text: (§2) RBM39-3xFLAG was immunopurified from HCT-116 cells expressing RBM39-3xFLAG (endogenous tag) using the cryomill procedure. DCAF15-3xFLAG was purified from 293T cells stably expressing DCAF15-3xFLAG through lentiviral transduction. […] Afterwards, beads were washed twice with 1×PBS, 0.1% NP40 and twice with 1×PBS. […] The tolbutamide internal standard (IS) was detected using the transition 269.1 to 169.9 (negative mode; M-H^−). […] The limit of quantitation (lowest quantifiable point on the standard curve with accuracy within 20% upon back calculation and at least 3-fold above background) for this method was 50 pg/ml.

[6] = molecular target: T6, DCAF15 and RBM39Δ150 (Homo sapiens, UniProt Q14498+Q66K64, P272S); assay: as above; assay type: binding; conditions: DCAF15 and RBM39Δ150 P272S; 10 μM indisulam
T6 construct: Full-length cDNAs encoding CUL4A, CUL4B, DCAF15, and DDB1 were cloned into pLVX IRES Puro; made in house; host or cells: RBM39Δ150: Sf9 (baculovirus); DCAF15-3xFLAG: anti-FLAG beads from HCT-116 or 293T cells stably expressing it
Source text: as §2

[7] = tested on: DCAF15 and RBM39Δ150; assay: as above; assay type: binding, human
Source text: as §2

T6 sequence (Q66K64 whole entry, stated change not applied): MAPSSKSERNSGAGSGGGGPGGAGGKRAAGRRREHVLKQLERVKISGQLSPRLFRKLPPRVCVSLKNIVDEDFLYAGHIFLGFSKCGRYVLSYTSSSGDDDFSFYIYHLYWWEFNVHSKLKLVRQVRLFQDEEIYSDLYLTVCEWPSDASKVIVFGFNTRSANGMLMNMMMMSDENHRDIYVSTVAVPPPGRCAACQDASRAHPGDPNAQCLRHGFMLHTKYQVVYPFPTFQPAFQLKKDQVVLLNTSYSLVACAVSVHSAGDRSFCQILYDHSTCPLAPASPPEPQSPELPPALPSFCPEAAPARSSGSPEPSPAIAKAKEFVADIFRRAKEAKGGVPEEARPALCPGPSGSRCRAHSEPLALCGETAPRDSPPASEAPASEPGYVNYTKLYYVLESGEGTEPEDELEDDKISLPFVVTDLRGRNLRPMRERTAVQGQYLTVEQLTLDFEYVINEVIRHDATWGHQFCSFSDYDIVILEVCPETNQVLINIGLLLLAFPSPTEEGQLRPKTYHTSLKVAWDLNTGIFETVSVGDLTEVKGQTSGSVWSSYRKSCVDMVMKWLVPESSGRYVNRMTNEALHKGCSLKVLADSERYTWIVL
T6 sequence (Q14498 151-530 P272S, stated change not applied): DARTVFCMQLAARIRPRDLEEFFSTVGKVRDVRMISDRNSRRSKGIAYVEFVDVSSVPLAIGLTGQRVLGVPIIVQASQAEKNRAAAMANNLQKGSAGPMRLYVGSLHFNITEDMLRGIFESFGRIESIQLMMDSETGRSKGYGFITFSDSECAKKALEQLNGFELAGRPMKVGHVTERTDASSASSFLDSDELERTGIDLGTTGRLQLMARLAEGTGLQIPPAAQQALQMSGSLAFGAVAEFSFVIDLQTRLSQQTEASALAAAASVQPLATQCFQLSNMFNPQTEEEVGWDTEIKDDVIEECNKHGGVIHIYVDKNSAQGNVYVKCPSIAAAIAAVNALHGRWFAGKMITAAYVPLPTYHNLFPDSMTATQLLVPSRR
T6 sequence (Q16531 2-1140 partner, stated change not applied): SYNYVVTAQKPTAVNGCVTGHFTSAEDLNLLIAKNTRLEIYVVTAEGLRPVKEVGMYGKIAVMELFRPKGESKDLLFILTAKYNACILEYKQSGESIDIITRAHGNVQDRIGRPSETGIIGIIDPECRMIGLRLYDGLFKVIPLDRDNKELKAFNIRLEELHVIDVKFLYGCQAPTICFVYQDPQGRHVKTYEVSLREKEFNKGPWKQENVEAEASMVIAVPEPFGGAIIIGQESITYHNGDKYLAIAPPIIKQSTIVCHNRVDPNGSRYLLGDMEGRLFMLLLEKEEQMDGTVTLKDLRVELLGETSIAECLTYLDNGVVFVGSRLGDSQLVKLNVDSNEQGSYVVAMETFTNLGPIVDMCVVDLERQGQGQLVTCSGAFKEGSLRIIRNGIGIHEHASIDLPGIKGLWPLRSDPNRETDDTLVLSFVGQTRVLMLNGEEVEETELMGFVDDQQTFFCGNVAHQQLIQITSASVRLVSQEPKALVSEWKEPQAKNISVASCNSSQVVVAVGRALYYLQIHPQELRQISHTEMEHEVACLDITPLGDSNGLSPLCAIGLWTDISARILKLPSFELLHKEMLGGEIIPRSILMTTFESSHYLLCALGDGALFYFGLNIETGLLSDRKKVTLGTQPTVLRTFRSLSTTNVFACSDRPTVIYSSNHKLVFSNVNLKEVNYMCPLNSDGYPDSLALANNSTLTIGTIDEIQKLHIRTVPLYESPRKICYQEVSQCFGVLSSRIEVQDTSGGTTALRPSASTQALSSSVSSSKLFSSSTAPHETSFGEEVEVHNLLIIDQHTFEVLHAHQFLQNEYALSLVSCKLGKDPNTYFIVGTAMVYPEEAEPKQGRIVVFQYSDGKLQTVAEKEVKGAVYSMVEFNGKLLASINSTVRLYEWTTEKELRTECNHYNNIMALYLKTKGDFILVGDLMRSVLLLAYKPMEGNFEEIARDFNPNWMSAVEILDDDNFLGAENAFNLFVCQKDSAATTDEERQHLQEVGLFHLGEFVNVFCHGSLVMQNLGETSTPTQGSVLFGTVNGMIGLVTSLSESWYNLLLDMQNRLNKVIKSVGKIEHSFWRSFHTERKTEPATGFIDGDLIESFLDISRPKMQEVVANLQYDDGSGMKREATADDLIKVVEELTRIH
T5 sequence (Q66K64 whole entry, stated change not applied): as the sequence (Q66K64 whole entry, stated change not applied) above
T5 sequence (Q14498 151-530, stated change not applied): as the sequence (Q14498 151-530 P272S, stated change not applied) above, with S122P counted along it
T5 sequence (Q16531 2-1140 partner): as the sequence (Q16531 2-1140 partner, stated change not applied) above

## NS(=O)(=O)c1ccc(S(=O)(=O)Nc2cccc3c(Cl)c[nH]c23)cc1 [Indisulam, indisulam]
[1]
  recruitment of RBM39 to CUL4, DDB1, DDA1, DCAF15 CRL complex (shotgun mass spectrometry): induces recruitment of RBM39
[2]
  recruitment of RBM39 G268V to the CUL4 complex: not recruited
[3]
  RBM39 ubiquitination: increased RBM39 ubiquitination
[4]
  co-purification of DDA1, DDB1, CUL4A with RBM39-3xFLAG in lysates: co-purified
[5]
  amount of indisulam in complex (LC-MS): highest levels of indisulam
[6]
  amount of indisulam in complex (LC-MS): lower levels of indisulam
[7]; DCAF15 and M265L or E271Q variants of RBM39Δ150
  amount of indisulam in complex (LC-MS): no indisulam was detected
[7]; either DCAF15 or RBM39 alone
  amount of indisulam (LC-MS): no indisulam was identified

From US20180140578A1, “METHODS AND COMPOSITIONS FOR THE DIAGNOSIS AND SELECTIVE TREATMENT OF CANCER” (Board of Regents of the University of Texas System, priority 2016, published 2018)
